Series [1] is described as follows: Selectivity index, ratio of IC50 for human recombinant MAO-A to IC50 for human recombinant MAO-B.
The nature of series [2]: Antioxidant activity assessed as trolox equivalent of ORAC radical scavenging activity by ORAC-FL assay relative to trolox. The class given is functional.
Series [3] addresses Amyloid-beta precursor protein (Homo sapiens) (UniProt P05067). Briefly: Inhibition of self-induced amyloid beta (1 to 42) (unknown origin) aggregation at 25 uM by ThT fluorescence assay.
The target is the same in series [4]. Briefly: Disaggregation of self-induced amyloid beta (1 to 42) (unknown origin) preformed fibrils at 25 uM by ThT fluorescence assay.
Series [5] deals with T1, Amine oxidase [flavin-containing] A (Homo sapiens, UniProt P21397).
T1 sequence (P21397 whole entry): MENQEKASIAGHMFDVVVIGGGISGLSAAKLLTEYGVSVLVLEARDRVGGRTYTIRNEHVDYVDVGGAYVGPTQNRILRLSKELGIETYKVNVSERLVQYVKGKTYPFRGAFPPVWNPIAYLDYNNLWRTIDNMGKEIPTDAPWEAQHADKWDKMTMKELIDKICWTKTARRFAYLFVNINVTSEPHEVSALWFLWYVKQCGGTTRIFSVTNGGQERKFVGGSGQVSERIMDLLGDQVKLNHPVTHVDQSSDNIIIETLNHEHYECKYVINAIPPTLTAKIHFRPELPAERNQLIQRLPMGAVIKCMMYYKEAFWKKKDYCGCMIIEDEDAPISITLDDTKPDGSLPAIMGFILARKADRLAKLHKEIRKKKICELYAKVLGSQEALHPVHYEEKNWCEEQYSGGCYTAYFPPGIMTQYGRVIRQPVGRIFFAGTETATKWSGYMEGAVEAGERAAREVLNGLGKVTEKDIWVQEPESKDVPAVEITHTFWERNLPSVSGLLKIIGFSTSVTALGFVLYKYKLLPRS
Briefly: Inhibition of human recombinant MAO-A.

The target in series [6] is T2, Amine oxidase [flavin-containing] B (Homo sapiens, UniProt P27338).
T2 sequence (P27338 whole entry): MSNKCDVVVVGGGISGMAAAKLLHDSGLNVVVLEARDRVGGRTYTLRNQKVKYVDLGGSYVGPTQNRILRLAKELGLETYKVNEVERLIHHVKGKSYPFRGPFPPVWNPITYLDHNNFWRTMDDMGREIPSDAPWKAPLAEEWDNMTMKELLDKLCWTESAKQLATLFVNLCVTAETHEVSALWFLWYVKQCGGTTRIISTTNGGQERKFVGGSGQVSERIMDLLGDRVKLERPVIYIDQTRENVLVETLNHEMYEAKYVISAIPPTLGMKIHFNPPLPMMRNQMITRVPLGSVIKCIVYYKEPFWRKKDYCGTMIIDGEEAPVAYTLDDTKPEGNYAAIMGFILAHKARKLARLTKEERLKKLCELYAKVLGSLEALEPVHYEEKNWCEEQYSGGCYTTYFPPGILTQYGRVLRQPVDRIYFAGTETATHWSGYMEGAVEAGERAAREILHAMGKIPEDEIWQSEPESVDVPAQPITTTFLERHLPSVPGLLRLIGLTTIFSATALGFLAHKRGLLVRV
Briefly: Inhibition of human recombinant MAO-B.

Series [7] addresses Amyloid-beta precursor protein (Homo sapiens) (UniProt P05067). Briefly: Inhibition of Cu2+-induced amyloid beta (1 to 42) (unknown origin) aggregation at 25 uM by ThT fluorescence assay.
Series [8] has the same target. Briefly: Disaggregation of Cu2+-induced amyloid beta (1 to 42) (unknown origin) preformed fibrils at 25 uM by ThT fluorescence assay.
The target of a further series is T3, MAO-A (Homo sapiens, UniProt P21397).
T3 sequence (P21397 whole entry): T1 sequence (P21397 whole entry)
Briefly: Inhibition of human recombinant MAO-A at 10 uM.

Amyloid-beta precursor protein (Homo sapiens), sequence (P05067 whole entry): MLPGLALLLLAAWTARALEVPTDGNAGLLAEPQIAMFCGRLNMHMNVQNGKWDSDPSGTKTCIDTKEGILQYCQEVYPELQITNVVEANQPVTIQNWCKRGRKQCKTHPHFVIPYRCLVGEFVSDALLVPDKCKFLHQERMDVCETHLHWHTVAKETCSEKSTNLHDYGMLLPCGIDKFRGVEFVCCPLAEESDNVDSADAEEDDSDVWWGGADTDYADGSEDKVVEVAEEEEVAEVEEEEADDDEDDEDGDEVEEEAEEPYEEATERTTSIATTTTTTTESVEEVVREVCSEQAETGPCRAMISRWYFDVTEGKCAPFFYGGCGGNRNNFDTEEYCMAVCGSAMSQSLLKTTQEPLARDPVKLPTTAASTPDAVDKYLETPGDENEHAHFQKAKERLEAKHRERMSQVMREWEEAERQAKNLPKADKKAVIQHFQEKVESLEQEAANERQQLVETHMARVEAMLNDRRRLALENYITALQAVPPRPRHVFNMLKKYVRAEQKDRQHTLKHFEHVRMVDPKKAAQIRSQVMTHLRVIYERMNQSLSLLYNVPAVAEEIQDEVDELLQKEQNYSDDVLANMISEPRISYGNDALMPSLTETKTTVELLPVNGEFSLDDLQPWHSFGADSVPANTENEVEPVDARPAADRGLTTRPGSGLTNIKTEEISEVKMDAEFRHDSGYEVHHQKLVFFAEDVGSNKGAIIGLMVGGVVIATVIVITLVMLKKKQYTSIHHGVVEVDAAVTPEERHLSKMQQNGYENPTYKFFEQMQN

With `CC1=NN(c2ccc3c(c2)C(=O)OC3)C(=O)C1`, in series [1], the Ratio IC50 came out at 1.6. The Ratio in series [2] is 1.18 equiv. In addition, in [3] (tested as the 2H-labelled form), the inhibition amounted to 71.5%. The compound also showed an Activity in series [4] (tested as the 2H-labelled form) of 28.6%.

`CCCCC1OC(=O)c2cc(N3N=C(c4cc(N(C)C)ccc4O)CC3=O)ccc21` (centres undefined): the values for the IC50 in [5] and in series [6] were more than 10 µM and 6.2 µM, respectively. The Ratio IC50 in series [1] was more than 1.6. The Ratio in series [2] came out at 2.58 equiv. The inhibition stood at 60.6% in series [3] and 63.8% in [7]. Also, the Activity in [4] was determined as 51%; in [8] it was 55.7%. Moreover, the inhibition at 10 µM on MAO-A is 1.6%.

For the compound `O=C1OCc2ccc(N3N=C(c4cc(F)ccc4O)CC3=O)cc21`, the values for the half-inhibitory concentration (IC50) in [5] and in [6] were more than 10 µM and 0.56 µM, respectively. For the same compound, the Ratio IC50 in [1] was more than 17.9. Besides, the Ratio in [2] came out at 1.25 equiv. The inhibition in [3] came to 46.1%; in series [7] it was 44.7%. The Activity was found to be 41.1% in series [4] and 42.8% in series [8]. The inhibition at 10 µM at MAO-A was found to be 24.2%.

As for `CCCCC1OC(=O)c2cc(N3N=C(c4ccc(Br)cc4O)CC3=O)ccc21` (centres undefined), the values for the half-maximal inhibitory concentration (IC50) in series [5] and in series [6] were more than 10 µM and 12.3 µM, respectively. Moreover, in series [1], the Ratio IC50 is more than 0.8. Besides, the Ratio in series [2] turned out to be 1.22 equiv. Further, the inhibition in [3] came out at 65.6%; in series [7] it was 69.4%. Also, the Activity in series [4] amounted to 54.1%; in series [8], 66%. Also, on MAO-A, the inhibition at 10 µM came to 14.8%.

With `CCCCC1OC(=O)c2cc(N3N=C(c4ccc(N(C)C)cc4O)CC3=O)ccc21` (centres undefined), the 50% inhibitory concentration (IC50) in series [5] was more than 10 µM; in series [6], 5.07 µM. The Ratio IC50 in series [1] was more than 2. Also, in series [2], the Ratio stood at 1.84 equiv. In [3], the inhibition amounted to 24.9%. Further, the Activity in series [4] is 7.68%. The inhibition at 10 µM at MAO-A was 9.51%.

With `CCCCC1OC(=O)c2cc(N3N=C(c4cc(Br)ccc4O)CC3=O)ccc21` (centres undefined), the IC50 in [5] is more than 10 µM; in series [6], 9.25 µM. For the same compound, the Ratio IC50 in [1] was more than 1.08. Also, the Ratio in series [2] was 1.38 equiv. For the same compound, the inhibition in series [3] is 69.3%; in series [7] it was 64.1%. Moreover, the Activity in series [4] amounted to 44.8%; in series [8] it was 55%. On MAO-A, the inhibition at 10 µM amounted to 10.9%.

`CCCCC1OC(=O)c2cc(N3N=C(c4cc(OC)ccc4O)CC3=O)ccc21` (centres undefined): the figures for the IC50 in [5] and in series [6] were more than 10 µM and 3.88 µM, respectively. For the same compound, the Ratio IC50 in series [1] is more than 2.6. The Ratio in series [2] came to 2.28 equiv. For the same compound, the inhibition in series [3] worked out at 78%; in [7], 71%. Also, the Activity was found to be 59.9% in [4] and 69.1% in [8]. Besides, on MAO-A, the inhibition at 10 µM came to 2.97%.

In the case of `CCCCC1OC(=O)c2cc(N3N=C(c4cccc(F)c4O)CC3=O)ccc21` (centres undefined), the concentration for half-maximal inhibition (IC50) in series [5] and in series [6] was more than 10 µM in each case. In series [2], the Ratio stood at 1.07 equiv. The inhibition in [3] was determined as 67%; in [7], 75.9%. Moreover, the Activity was 42.6% in [4] and 54.6% in series [8]. For the same compound, on MAO-A, the inhibition at 10 µM was found to be 7.96%.

On to `CCCCC1OC(=O)c2cc(N3N=C(c4cc(C)ccc4O)CC3=O)ccc21` (centres undefined), for which the values for the IC50 in series [5] and in [6] were more than 10 µM and 7.35 µM, respectively. Further, the Ratio IC50 in [1] is more than 1.4. Besides, the Ratio in series [2] was determined as 1.6 equiv. The values for the inhibition in series [3] and in series [7] were 54.4% and 61.2%, respectively. In series [4], this compound returned an Activity of 24.7%. For the same compound, the inhibition at 10 µM at MAO-A came out at 5.2%.

On to `CCCCC1OC(=O)c2cc(N3N=C(c4cc(Cl)cc(Cl)c4O)CC3=O)ccc21` (centres undefined), for which the half-maximal inhibitory concentration (IC50) in series [5] was more than 10 µM; in series [6], 5.53 µM. Also, the Ratio IC50 in [1] was more than 1.8. Besides, the Ratio in series [2] was 0.97 equiv. Also, the inhibition in series [3] was found to be 55.1%; in series [7], 70.3%. In addition, the figures for the Activity in series [4] and in series [8] were 78.3% and 77.7%, respectively. Also, at MAO-A, the inhibition at 10 µM came out at 1.11%.

As for `C[C@H](NCc1ccc(OCc2cccc(F)c2)cc1)C(N)=O` [SAFINAMIDE], the inhibition at 10 µM on MAO-A was 9.67%.

Regarding `CCCCC1OC(=O)c2cc(N3N=C(c4cc(F)ccc4O)CC3=O)ccc21` (centres undefined), the IC50 in [5] was more than 10 µM; in series [6], 3.45 µM. In addition, the Ratio IC50 in series [1] is more than 2.9. Further, the Ratio in [2] worked out at 1.21 equiv. In addition, the values for the inhibition in series [3] and in [7] were 66.6% and 60.3%, respectively. Further, the Activity came to 52.7% in [4] and 59.5% in [8]. Further, the inhibition at 10 µM on MAO-A was 13.3%.

For the compound `O=C1OCc2ccc(N3N=C(c4ccccc4O)CC3=O)cc21`, the concentration for half-maximal inhibition (IC50) in [5] was more than 10 µM; in series [6], 0.22 µM. The Ratio IC50 in series [1] is more than 45.5. Besides, the Ratio in [2] was 1.38 equiv. The same compound displayed an inhibition in series [3] of 33.5%. The compound also had an Activity in [4] of 28.1%. Also, at MAO-A, the inhibition at 10 µM amounted to 23.2%.

For `CCCCCCCC1OC(=O)c2cc(N3N=C(c4ccccc4O)CC3=O)ccc21` (centres undefined), the values for the IC50 in series [5] and in [6] were more than 10 µM and 11.4 µM, respectively. Moreover, in [1], the Ratio IC50 was more than 0.9. Further, the Ratio in series [2] was 1.38 equiv. The inhibition is 57.8% in series [3] and 44.1% in [7]. Besides, the Activity is 68.6% in series [4] and 71.7% in series [8]. The inhibition at 10 µM at MAO-A amounted to 14.5%.

As for `CCCCC1OC(=O)c2cc(N3N=C(c4cc([N+](=O)[O-])ccc4O)CC3=O)ccc21` (centres undefined), the values for the IC50 in [5] and in [6] were more than 10 µM and 9.26 µM, respectively. Besides, the Ratio IC50 in [1] is more than 1.1. For the same compound, the Ratio in [2] turned out to be 0.73 equiv. For the same compound, the inhibition in series [3] worked out at 68.8%; in series [7] it was 66.1%. Also, the Activity in series [4] was found to be 57.2%; in series [8], 61.8%. For the same compound, the inhibition at 10 µM on MAO-A was found to be 8.48%.

In the case of `CCCCCCCC1OC(=O)c2cc(N3N=C(c4cc(OC)ccc4O)CC3=O)ccc21` (centres undefined), the IC50 is more than 10 µM in [5] and 2.87 µM in series [6]. Moreover, in series [1], the Ratio IC50 is more than 3.5. Besides, in series [2], the Ratio was determined as 1.82 equiv. Besides, the inhibition in series [3] stood at 45.4%; in series [7], 63.1%. Also, the Activity in [4] was found to be 31.1%; in series [8] it was 60.7%. Moreover, the inhibition at 10 µM at MAO-A came out at 8.73%.

Turning to `[2H]C1OC(=O)c2cc(N3N=C(C)CC3=O)ccc21` (centres undefined), the IC50 in series [5] worked out at 6.78 µM; in [6] it was 4.36 µM.

`COc1cc(/C=C/C(=O)CC(=O)/C=C/c2ccc(O)c(OC)c2)ccc1O` registered an Activity in [4] of 35.8%.

As to `O=C1OCc2ccc(N3N=C(c4cccc(F)c4O)CC3=O)cc21`, the IC50 is more than 10 µM in series [5] and 0.9 µM in [6]. Also, the Ratio IC50 in series [1] is more than 11.1. In series [2], the Ratio stood at 1.1 equiv. Further, the inhibition in series [3] stood at 21.3%. The same compound came in with an Activity in series [4] of 8.27%. Also, the inhibition at 10 µM on MAO-A was determined as 21%.

With `CCCCC1OC(=O)c2cc(-n3nc(-c4ccccc4O)cc3C)ccc21` (centres undefined), the concentration for half-maximal inhibition (IC50) in series [5] and in [6] was more than 10 µM throughout. Also, the Ratio in series [2] came to 1.38 equiv. This compound came in with an inhibition in [3] of 19.3%. The Activity in series [4] came out at 8.11%. On MAO-A, the inhibition at 10 µM turned out to be 20.4%.

`CCCCC1OC(=O)c2cc(N3N=C(c4ccccc4O)CC3=O)ccc21` (centres undefined): the half-maximal inhibitory concentration (IC50) in series [5] and in series [6] was more than 10 µM each time. Further, in series [2], the Ratio stood at 1.55 equiv. Further, the inhibition was found to be 70.9% in [3] and 75.3% in series [7]. Moreover, the Activity in series [4] came to 65%; in [8] it was 76.4%. Besides, the inhibition at 10 µM on MAO-A came to 25.6%.

Values taken from ChEMBL document CHEMBL5620344, “Discovery of novel 5-(2-hydroxyphenyl)-2-phthalide-3(3H)-pyrazolones as balanced multifunctional agents against Alzheimer's disease” (Eur J Med Chem, 2023).
